Source: patent publication US10085963B2, “Process and compositions for achieving mammalian energy balance” (SAMI LABS LIMITED, priority 2015, dated 2018)

Experiments:
[1] = test system: mammalian pre-adipocytes / adipocytes; assay: Adipogenesis inhibition, Oil Red O staining; format: cell-based
Description: […] C.) of 5% CO2 and 95% air; • f) Fixing, the cells of step e by adding 100 μl of 10% formalin and staining using the Oil Red O technique; • g) Reading the optical density of cells of step f at 492 nm in a microplate reader and expressing the results as inhibitory concentration (IC50) values using the graph pad prism software; • h) Calculating the percentage inhibition of adipogenesis in the cells of steps f and g using the formula, C-T/T×100, wherein C is the absorbance of Oil Red O in differentiating/undifferentiated cells and T is the absorbance of Oil Red O in sample treated differentiating/undifferentiated cells. • i) Adding 200 μl of freshly prepared Adipogenesis induction medium to the wells of step a. • j) Adding 200 μl of freshly prepared Adipogenesis progression medium comprising graded concentrations of forskolin (50 μg/ml and 100 μg/ml respectively) to the wells of step i after 72 hours of incubation with the Adipogenesis induction medium; • k) Incubating the cells treated with forskolin (step j), adipogenesis induction medium (step i) and adipogenesis progression medium (step j) for 48 hours in a humidified atmosphere (37 deg. C.) of 5% (CO2 and 95% air; • l) Fixing the cells of step 1 by adding 100 μl of 10% formal in and staining using the Oil Red O technique; • m) Reading the optical density of cells of step m at 492 nm in as microplate reader and expressing the results as inhibitory concentration (IC50) values using the graph pad prism software; • n) Calculating the percentage inhibition of adipogenesis in the cells of steps m and n using the formula, C-T/T×100, wherein C is the absorbance of Oil Red O in differentiating/undifferentiated cells and T is the absorbance of Oil Red O in sample treated differentiating/undifferentiated cells; and • o) Comparing percentage inhibition of adipogenesis in the cells of steps h and o.

[2] = administration in humans; cited from earlier work

C=C[C@@]1(C)CC(=O)[C@]2(O)[C@@]3(C)[C@@H](O)CCC(C)(C)[C@@H]3[C@H](O)[C@H](OC(C)=O)[C@@]2(C)O1 [forskolin]
inhibition at 6.25 µg/mL ([1]; Adipocyte, forskolin 6.25 μg/ml, read-out: % inhibition of adipogenesis when forskolin is added after differentiation of pre-adipocytes to the adipocyte stage): 1.2% | inhibition at 12.5 µg/mL ([1]; Adipocyte, forskolin 12.50 μg/ml, read-out: % inhibition of adipogenesis when forskolin is added after differentiation of pre-adipocytes to the adipocyte stage): 6.8% | inhibition at 25 µg/mL ([1]; Adipocyte, forskolin 25 μg/ml, read-out: % inhibition of adipogenesis when forskolin is added after differentiation of pre-adipocytes to the adipocyte stage): 10.6% | inhibition at 50 µg/mL ([1]; Adipocyte, forskolin 50 μg/ml, read-out: % inhibition of adipogenesis when forskolin is added after differentiation of pre-adipocytes to the adipocyte stage): 12.9% | inhibition at 100 µg/mL ([1]; Adipocyte, forskolin 100 μg/ml, read-out: % inhibition of adipogenesis when forskolin is added after differentiation of pre-adipocytes to the adipocyte stage): 18.5% | % inhibition of adipogenesis when forskolin is added at the pre-adipocyte stage (before differentiation into the adipocyte stage) ([1]; forskolin 6.25 μg/ml): 10.2% | % inhibition of adipogenesis when forskolin is added at the pre-adipocyte stage (before differentiation into the adipocyte stage) ([1]; forskolin 12.50 μg/ml): 12.8% | % inhibition of adipogenesis when forskolin is added at the pre-adipocyte stage (before differentiation into the adipocyte stage) ([1]; forskolin 25 μg/ml): 19.7% | % inhibition of adipogenesis when forskolin is added at the pre-adipocyte stage (before differentiation into the adipocyte stage) ([1]; forskolin 50 μg/ml): 35.5% | % inhibition of adipogenesis when forskolin is added at the pre-adipocyte stage (before differentiation into the adipocyte stage) ([1]; forskolin 100 μg/ml): 41.8% | clinically significant side effects [2]: does not cause clinically significant side effects
